Assay results from ChEMBL document CHEMBL1201862, “PubChem BioAssay data set” (2004).
The source made the active and inactive calls.

Experiments:
[1] = P. falciparum late gametocyte killing, dose response, luminescence (AID 1117278); assay type: functional, cell-based;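 note: gametocytes exposed to compound for 24 hours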
[2] = Jurkat T cell cytotoxicity, dose response, cytotoxicity control for P. falciparum gametocyte viability project, luminescence (AID 1117277); assay type: functional, cell-based;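 note: potency reflects loss of cellular ATP meaning fewer viable cells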
cells [3] = assay type: functional, cell-based
cells [4] = assay type: functional, cell-based; remark: listed apart in the source
[5] = target: E3 ubiquitin-protein ligase Mdm2 (Homo sapiens, UniProt Q00987); test: enhancers of MDM2-luciferase reporter signal, concentration-effect titration, project on inhibitors of MDM2 ubiquitin ligase, cellular assay, luminescent readout, 384-well plate format (AID 1394); assay type: functional;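 note: MDM2 E3 inhibitors raise luminescence so EC50 is for signal enhancement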
Sequence of E3 ubiquitin-protein ligase Mdm2 (Q00987 whole entry): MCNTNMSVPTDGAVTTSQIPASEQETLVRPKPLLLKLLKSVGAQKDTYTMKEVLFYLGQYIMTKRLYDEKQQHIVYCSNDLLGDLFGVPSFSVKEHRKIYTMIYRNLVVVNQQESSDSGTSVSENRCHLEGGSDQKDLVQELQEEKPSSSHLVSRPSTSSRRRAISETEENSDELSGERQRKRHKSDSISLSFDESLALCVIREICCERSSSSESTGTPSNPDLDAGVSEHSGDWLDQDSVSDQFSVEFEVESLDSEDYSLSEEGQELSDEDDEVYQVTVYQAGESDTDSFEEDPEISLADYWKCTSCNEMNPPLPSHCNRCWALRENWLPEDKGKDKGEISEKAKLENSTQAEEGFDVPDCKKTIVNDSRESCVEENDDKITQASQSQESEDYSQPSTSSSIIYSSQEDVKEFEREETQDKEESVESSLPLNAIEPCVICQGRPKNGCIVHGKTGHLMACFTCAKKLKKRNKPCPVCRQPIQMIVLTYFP

[6] = target: Mitogen-activated protein kinase 10 (Homo sapiens, UniProt P53779); test: Dose response biochemical screening assay for inhibitors of c-Jun N-Terminal Kinase 3 (JNK3). [Related pubchem assays: 746 ]
[7] = target: Sphingosine 1-phosphate receptor 2 (Homo sapiens, UniProt O95136); test: Dose Response Cell Based Assay for Agonists of the S1P2 Receptor. [Related pubchem assays: 729, 736, 843 ]; assay type: functional
[8] = cytotoxicity in OVCAR8 ovarian cancer cells, dose response, PAX8 project, cell-based, plate reader, dry powder samples (AID 743197); assay type: functional; conditions: OVCAR-8
Paired box protein Pax-8 = Paired box protein Pax-8 (Homo sapiens, UniProt Q06710); test: inhibitors of PAX8-driven TPO luciferase reporter, dose response, RMG-I cells, cherry-pick (AID 687027); assay type: functional, cell-based;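 note: luciferase reporter driven by Pax8 target thyroperoxidase promoter measured by SteadyGlo luminescence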
Sequence of Paired box protein Pax-8 (Q06710 whole entry): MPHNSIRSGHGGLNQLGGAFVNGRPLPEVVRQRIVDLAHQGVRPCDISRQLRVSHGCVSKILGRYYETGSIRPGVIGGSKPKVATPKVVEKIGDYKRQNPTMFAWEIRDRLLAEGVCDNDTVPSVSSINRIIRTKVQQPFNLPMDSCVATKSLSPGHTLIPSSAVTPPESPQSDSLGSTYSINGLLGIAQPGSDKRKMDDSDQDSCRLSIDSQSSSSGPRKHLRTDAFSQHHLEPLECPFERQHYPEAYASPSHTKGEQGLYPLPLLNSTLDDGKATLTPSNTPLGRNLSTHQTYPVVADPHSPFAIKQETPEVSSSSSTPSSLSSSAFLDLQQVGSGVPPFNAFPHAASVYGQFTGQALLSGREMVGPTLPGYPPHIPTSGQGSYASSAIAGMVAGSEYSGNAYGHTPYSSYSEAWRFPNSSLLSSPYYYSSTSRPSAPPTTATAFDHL

[9] = IGROV1 ovarian cancer cell cytotoxicity, dose response, PAX8 inhibitor project, plate reader, dry powder samples (AID 743043); assay type: functional, cell-based; conditions: IGROV-1
[10] = NIH:OVCAR-3 ovarian cancer cell cytotoxicity, dose response, PAX8 inhibitor project, plate reader, dry powder samples (AID 743044); assay type: functional, cell-based
[11] = microbe, parasite or virus in culture; assay type: functional; conditions: Mycobacterium tuberculosis
[12] = target: Disintegrin and metalloproteinase domain-containing protein 17 (Homo sapiens, UniProt P78536); test: ADAM17 protease inhibitors, dose response, counter-screen for ADAM10 exosite inhibitor project, biochemical, quenched FRET substrate (AID 743253)
Sequence of Disintegrin and metalloproteinase domain-containing protein 17 (P78536 whole entry, the tested form may be a part): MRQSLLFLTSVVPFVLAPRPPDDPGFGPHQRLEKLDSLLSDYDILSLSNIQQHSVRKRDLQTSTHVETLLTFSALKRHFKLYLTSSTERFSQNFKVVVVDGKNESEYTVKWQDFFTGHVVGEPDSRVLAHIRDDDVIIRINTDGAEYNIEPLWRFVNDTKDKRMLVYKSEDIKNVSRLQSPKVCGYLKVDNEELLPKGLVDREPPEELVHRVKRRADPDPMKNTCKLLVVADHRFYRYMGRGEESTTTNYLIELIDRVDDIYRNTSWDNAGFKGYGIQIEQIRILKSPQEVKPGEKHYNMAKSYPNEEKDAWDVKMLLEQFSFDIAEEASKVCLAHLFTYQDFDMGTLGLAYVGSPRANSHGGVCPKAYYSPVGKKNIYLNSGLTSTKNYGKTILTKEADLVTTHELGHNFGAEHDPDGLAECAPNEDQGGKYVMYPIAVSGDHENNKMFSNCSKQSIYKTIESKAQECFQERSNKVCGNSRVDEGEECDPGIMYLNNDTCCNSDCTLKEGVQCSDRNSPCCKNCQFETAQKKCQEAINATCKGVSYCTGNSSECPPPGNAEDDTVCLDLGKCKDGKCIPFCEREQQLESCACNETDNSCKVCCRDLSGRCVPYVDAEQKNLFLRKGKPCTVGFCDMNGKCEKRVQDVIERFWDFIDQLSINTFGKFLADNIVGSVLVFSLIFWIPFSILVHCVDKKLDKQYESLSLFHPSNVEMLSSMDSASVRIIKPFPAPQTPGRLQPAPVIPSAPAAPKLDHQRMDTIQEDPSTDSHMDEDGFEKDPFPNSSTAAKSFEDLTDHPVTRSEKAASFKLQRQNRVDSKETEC

[13] = ADAM10 inhibitors, peptide cleavage, dose response, biochemical, QFRET (AID 743254);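 note: ADAM10 enzyme with the DM2 quenched FRET peptide as substrate; EDANS fluorescence gain as the protease cuts the substrate; inhibitor potency against ADAM10 proteolytic activity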
[14] = target: Tyrosyl-DNA phosphodiesterase 2 (Homo sapiens, UniProt O95551); test: human TDP2 enzyme inhibitors, dose response, biochemical, epi absorbance, IC50 (AID 743297)
[15] = human group III sPLA2 inhibitors, dose response, biochemical, QFRET, IC50 (AID 743457);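 note: green fluorescence rise as the enzyme cleaves BODIPY PC-A2 in liposomes; potency for inhibition of the enzyme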
Fatty acid synthase [16] = target: T1, Fatty acid synthase (Homo sapiens, UniProt P49327); test: FAS thioesterase domain inhibitors, dose response, biochemical, endpoint fluorescence intensity, uHTS hits (AID 624327); assay type: functional;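 note: fluorescence from hydrolysis of an O-methyl fluorescein acyl ester substrate by the enzyme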
T1 sequence (P49327 whole entry, the tested form may be a part): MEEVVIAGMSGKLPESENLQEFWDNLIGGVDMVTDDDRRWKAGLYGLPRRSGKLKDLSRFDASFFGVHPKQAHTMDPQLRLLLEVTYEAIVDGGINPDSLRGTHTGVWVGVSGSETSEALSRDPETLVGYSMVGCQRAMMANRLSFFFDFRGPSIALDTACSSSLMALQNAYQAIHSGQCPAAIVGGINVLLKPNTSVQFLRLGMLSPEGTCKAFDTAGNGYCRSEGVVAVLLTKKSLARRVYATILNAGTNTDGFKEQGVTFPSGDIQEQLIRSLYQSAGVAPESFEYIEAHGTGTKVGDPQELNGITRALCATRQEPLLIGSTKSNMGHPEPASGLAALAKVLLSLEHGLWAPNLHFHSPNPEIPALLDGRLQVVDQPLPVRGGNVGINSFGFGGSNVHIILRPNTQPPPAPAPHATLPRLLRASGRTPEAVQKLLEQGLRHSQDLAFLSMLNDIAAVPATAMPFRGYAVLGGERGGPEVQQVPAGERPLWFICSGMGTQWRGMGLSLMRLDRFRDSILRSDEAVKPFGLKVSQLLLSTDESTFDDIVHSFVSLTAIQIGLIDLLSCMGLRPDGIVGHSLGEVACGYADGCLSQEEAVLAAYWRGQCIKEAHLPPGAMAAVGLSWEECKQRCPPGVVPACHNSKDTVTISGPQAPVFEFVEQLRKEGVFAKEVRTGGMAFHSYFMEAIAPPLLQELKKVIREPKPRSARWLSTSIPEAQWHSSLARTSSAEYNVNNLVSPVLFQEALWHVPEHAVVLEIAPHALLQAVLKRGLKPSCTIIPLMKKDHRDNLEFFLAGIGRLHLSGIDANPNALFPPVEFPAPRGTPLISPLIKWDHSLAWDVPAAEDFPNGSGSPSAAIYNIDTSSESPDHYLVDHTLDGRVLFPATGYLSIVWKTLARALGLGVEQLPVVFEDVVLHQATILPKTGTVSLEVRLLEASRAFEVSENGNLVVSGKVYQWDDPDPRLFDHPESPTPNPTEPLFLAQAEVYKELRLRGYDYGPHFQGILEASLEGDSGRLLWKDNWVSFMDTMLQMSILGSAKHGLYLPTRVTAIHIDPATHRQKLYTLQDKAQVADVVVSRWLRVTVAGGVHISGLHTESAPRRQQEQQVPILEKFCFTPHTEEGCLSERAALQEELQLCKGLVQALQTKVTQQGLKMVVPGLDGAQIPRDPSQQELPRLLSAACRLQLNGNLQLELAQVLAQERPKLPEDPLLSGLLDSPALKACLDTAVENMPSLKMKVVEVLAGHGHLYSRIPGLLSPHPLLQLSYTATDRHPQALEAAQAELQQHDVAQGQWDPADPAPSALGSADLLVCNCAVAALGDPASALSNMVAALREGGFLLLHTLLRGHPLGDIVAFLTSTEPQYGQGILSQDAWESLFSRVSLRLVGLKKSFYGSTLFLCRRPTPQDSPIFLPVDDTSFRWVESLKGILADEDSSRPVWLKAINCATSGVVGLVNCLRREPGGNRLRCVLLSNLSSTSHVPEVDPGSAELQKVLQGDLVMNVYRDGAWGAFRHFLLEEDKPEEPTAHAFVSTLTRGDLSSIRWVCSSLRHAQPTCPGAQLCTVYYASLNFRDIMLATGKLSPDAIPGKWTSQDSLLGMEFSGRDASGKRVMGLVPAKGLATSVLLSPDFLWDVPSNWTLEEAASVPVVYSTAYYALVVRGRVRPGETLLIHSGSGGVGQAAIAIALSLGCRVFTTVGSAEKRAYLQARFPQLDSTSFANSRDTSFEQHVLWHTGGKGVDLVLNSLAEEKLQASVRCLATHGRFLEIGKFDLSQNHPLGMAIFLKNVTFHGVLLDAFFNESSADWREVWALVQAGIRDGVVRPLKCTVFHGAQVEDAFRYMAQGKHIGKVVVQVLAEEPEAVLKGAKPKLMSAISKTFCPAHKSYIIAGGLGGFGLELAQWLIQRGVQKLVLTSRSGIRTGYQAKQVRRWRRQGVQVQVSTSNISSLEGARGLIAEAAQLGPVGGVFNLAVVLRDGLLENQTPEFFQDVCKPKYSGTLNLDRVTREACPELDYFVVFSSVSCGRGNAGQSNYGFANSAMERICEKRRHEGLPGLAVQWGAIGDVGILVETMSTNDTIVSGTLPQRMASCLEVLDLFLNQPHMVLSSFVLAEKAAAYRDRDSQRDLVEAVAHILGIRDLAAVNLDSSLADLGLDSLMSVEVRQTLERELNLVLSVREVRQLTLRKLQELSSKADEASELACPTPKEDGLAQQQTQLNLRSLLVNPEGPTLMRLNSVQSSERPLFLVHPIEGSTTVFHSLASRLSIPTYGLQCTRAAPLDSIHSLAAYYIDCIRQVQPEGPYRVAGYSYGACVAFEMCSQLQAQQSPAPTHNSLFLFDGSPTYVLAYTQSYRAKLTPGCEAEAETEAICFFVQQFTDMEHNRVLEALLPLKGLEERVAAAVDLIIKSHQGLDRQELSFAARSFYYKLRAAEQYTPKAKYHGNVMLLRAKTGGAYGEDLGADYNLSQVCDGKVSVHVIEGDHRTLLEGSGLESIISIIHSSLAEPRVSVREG

Nonstructural protein 1 = Nonstructural protein 1 (Influenza A virus, UniProt Q194T2); assay type: functional, Influenza A virus (A/California/07/2009(H1N1))
[17] = target: T2, Rac GTPase-activating protein 1 (Homo sapiens, UniProt Q9H0H5); test: MgcRacGAP GTPase-activating activity inhibitors, confirmation, biochemical, ADP Hunter fluorescence, primary and confirmatory (AID 624330); assay type: functional
T2 sequence (Q9H0H5 whole entry): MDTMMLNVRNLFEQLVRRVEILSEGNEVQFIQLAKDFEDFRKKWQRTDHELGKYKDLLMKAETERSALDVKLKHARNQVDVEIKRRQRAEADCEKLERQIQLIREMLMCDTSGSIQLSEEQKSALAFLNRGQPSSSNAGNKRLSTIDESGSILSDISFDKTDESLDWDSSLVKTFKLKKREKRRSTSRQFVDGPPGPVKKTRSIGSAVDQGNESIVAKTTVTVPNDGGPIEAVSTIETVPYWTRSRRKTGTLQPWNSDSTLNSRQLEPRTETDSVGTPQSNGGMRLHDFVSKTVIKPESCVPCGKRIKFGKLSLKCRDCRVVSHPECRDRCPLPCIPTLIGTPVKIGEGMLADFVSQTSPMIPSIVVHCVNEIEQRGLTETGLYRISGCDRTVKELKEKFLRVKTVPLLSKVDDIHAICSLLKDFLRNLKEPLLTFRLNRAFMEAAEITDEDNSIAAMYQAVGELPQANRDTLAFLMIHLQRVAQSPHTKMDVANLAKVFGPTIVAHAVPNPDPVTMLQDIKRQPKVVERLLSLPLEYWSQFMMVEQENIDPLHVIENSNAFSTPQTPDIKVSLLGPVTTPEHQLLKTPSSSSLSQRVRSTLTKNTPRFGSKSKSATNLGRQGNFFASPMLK

[18] = HeLa cell cytotoxicity, dose response, cytotoxicity control for MgcRacGAP inhibitor project (AID 624300); assay type: functional
Fatty acid synthase [19] = target: T1, Fatty acid synthase; test: FAS thioesterase domain inhibitors, dose response, biochemical, kinetic fluorescence intensity (AID 624326); assay type: functional;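 note: rate of fluorescence rise from hydrolysis of a fluorogenic O-methyl fluorescein ester substrate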
[20] = LGR2 antagonists, dose response, cell-based, HEK293, CRE-luciferase reporter, cherry pick, set 2 (AID 743343); assay type: functional;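 note: transfected cells were stimulated with diluted bursicon conditioned medium after compound addition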
[21] = HepG2 cell cytotoxicity, dose response, cytotoxicity control, plate reader, cherry-pick, antagonist series (AID 743416); assay type: functional, cell-based
[22] = MC4R antagonists, dose response, counter-screen for LGR2 antagonist project, cell-based, plate reader, cherry pick (AID 743444); assay type: functional;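 note: transfected HEK 293 cells stimulated with alpha-MSH peptide; potency of inhibitors of the alpha-MSH evoked signal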
cells [23] = assay type: functional, cell-based; remark: listed apart in the source
[24] = A549 cell cytotoxicity, dose response, cytotoxicity control, plate reader, cherry-pick, antagonist series (AID 743412); assay type: functional, cell-based
[25] = target: T3, Nuclear receptor subfamily 0 group B member 1 (Homo sapiens, UniProt P51843); assay type: functional, cell-based;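 note: HEK293T cells transfected with SF-1 and DAX-1 plus StAR promoter luciferase reporter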
T3 sequence (P51843 whole entry): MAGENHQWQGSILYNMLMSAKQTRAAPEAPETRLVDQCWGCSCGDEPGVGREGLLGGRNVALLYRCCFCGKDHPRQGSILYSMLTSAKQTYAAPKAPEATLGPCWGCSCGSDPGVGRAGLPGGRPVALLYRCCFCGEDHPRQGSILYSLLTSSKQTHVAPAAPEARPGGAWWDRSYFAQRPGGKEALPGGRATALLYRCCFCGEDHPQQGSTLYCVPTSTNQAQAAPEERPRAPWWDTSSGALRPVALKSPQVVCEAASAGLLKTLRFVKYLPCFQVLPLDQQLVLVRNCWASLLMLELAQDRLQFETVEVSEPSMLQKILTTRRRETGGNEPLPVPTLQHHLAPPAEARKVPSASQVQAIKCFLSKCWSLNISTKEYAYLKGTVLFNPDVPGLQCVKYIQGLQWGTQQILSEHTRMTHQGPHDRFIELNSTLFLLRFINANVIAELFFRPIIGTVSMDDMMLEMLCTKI

[26] = target: Fructose-bisphosphate aldolase (Mycobacterium tuberculosis, UniProt P9WQA3); test: Fluorescence-based biochemical high throughput dose response assay for inhibitors of the fructose-bisphosphate aldolase (FBA) of M. tuberculosis.; assay type: functional
H9c2 = test: cells; assay type: functional, cell-based; conditions: Rattus norvegicus, H9c2, Myocardium;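 note: confirmatory concentration-response retest of ultra-high-throughput screening hits for modulation of myocardial damage; cell death induced by hydrogen peroxide oxidative stress; compound pretreatment for 60 min then peroxide exposure for 2 h; potency is for protecting the cells against peroxide damage rather than for killing them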
[27] = Artemis endonuclease inhibitor potency, dose response, biochemical, fluorescence intensity (AID 720701); assay type: functional;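 note: Artemis endonuclease enzyme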
[28] = HepG2 cell cytotoxicity, dose response, cytotoxicity control for Shn3 inhibitor project, CellTiter-Glo, cherry-picked (AID 624134); assay type: functional, cell-based
[29] = Luminescence Cell-Based Dose Retest to Confirm Inhibitors of Cancer Stem Cells. [Related pubchem assays (depositor defined):AID2717, AID2721]; assay type: functional; conditions: Homo sapiens
[30] = Shn3 3'UTR reporter inhibitors, dose response, cell-based, Clone20 osteoblasts, firefly luciferase, cherry-picked (AID 624132); assay type: functional;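 note: firefly luciferase luminescence from reporter carrying the Shn3 3'UTR in osteoblasts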
[31] = target: T4, Runt-related transcription factor 1/Core-binding factor subunit beta (Homo sapiens, UniProt Q01196+Q13951); test: inhibitors of RUNX1 Runt–CBFb-SMMHC binding, biochemical, TR-FRET (AID 1438); assay type: protein assay
T4 sequence (Q01196 whole entry, the tested form may be a part): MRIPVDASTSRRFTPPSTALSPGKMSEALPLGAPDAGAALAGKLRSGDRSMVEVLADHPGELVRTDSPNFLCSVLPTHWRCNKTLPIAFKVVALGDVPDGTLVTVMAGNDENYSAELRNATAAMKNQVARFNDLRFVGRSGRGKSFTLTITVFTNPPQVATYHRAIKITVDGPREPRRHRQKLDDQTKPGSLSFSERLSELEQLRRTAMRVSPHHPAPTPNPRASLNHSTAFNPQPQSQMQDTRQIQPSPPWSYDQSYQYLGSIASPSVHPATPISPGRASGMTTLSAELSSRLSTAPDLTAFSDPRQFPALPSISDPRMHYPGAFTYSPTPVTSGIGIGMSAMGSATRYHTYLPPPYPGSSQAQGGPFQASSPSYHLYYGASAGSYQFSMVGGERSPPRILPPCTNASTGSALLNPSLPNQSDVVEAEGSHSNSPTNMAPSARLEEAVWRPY
T4 sequence (Q13951 whole entry, the tested form may be a part): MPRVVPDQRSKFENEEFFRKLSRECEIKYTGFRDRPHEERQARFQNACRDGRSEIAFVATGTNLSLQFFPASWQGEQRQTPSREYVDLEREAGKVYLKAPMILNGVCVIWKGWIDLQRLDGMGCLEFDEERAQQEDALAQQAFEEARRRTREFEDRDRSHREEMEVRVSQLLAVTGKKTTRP

[32] = target: T4, Runt-related transcription factor 1/Core-binding factor subunit beta; test: inhibitors of RUNX1 Runt–CBFb-SMMHC binding, primary screen, biochemical, FRET, Cerulean-Runt, Venus-CBFb-SMMHC, uHTS (AID 1434); assay type: protein assay;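 note: partner is the CBFb-SMMHC leukemia fusion protein rather than wild-type CBFb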
Protein skinhead-1 = target: T5, Protein skinhead-1 (Caenorhabditis elegans, UniProt P34707); assay type: functional
T5 sequence (P34707 whole entry): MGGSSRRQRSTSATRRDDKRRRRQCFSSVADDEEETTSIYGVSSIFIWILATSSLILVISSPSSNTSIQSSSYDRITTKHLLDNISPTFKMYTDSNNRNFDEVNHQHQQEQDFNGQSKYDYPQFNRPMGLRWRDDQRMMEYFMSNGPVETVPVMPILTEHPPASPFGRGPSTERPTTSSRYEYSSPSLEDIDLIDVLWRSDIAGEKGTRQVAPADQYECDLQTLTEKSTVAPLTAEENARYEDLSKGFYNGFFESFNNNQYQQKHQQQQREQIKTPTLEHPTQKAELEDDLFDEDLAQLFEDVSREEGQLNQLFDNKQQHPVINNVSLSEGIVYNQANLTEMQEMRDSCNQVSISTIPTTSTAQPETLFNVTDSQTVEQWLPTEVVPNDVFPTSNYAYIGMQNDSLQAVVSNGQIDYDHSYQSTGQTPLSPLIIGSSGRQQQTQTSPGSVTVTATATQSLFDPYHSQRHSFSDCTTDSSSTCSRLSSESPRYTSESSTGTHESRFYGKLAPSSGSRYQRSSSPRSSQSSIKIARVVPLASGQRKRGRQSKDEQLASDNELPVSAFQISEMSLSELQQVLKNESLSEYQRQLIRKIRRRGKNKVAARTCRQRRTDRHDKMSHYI

Compound: Cc1ccc(CNC(=O)C2CCN(S(=O)(=O)N3CCCCC3)CC2)cc1
- IC50 [1]: > 109 µM (inactive)
- IC50 [2]: > 83.4 µM (inactive)

Compound: CCOC(=O)C1(C)NC(c2ccc(OC)cc2OC)C2C(=O)N(CC)C(=O)C21 (centres undefined)
- EC50 (cells [3]): > 350 µM (not active)
- IC50 [1]: > 109 µM (inactive)
- IC50 [2]: > 83.3 µM (inactive)
- EC50 (cells [4]): > 350 µM (not active)

Compound: COc1ccc(OCC(=O)N/N=C(\C)CC(=O)Nc2cccc([N+](=O)[O-])c2)cc1
- EC50 [5]: 15.7 µM (not active)

Compound: COc1ccc(NC(=O)CCCCn2c(=O)[nH]c3ccccc3c2=O)cc1
- IC50 [6]: 55.1 µM (not active)

Compound: O=S(=O)(Cc1ccc(Cl)cc1)NCC1CCCO1 (centres undefined)
- EC50 [7]: > 50 µM (not active)

Compound: COc1ccc(S(=O)(=O)Nc2ccc3c(c2)C(=O)N([C@H](C)CO)C[C@@H](C)[C@H](CN(C)S(=O)(=O)c2ccc(Cl)cc2)OCCCC[C@H](C)O3)cc1
- AC50 [8]: > 70 µM (inactive)
- AC50 (Paired box protein Pax-8): 3.99 µM (active)
- AC50 [9]: 34.6 µM (active)
- AC50 [10]: 33.5 µM (active)

Compound: COc1cc(NC(=O)c2ccc(COc3ccccc3Br)o2)cc(OC)c1OC
- IC50 [6]: 33 µM (not active)
- CC50 [11]: > 40 µM (active)

Compound: CCOc1ccc(-n2c(SCC(=O)Nc3ccc(S(=O)(=O)Nc4nccs4)cc3)nnc2-c2ccc(C(C)(C)C)cc2)cc1
- IC50 [12]: > 69.5 µM (inactive)
- IC50 [13]: 9.71 µM (active)

Compound: C[C@H]1CCCCO[C@@H](CN(C)Cc2ccccc2)[C@@H](C)CN([C@@H](C)CO)C(=O)c2cc(NC(=O)Nc3ccc(C(F)(F)F)cc3)ccc2O1
- AC50 [8]: 42 µM (active)
- AC50 (Paired box protein Pax-8): 11.6 µM (active)
- AC50 [9]: 48.1 µM (active)
- AC50 [10]: 60.4 µM (active)

Compound: COc1cccc(CNC(=O)CN(c2cc(C)cc(C)c2)S(=O)(=O)c2c(C)noc2C)c1
- EC50 [7]: > 50 µM (not active)

Compound: CCOC(=O)c1cc2c(=Cc3ccc(N(C)C)cc3)c3ccccc3n2[n+]1C
- IC50 [14]: > 128 µM (inactive)
- IC50 [15]: 36.1 µM (inactive)
- IC50 (Fatty acid synthase [16]): 12.9 µM (active)
- IC50 (Nonstructural protein 1): 12 µM (active)
- IC50 [17]: 42.5 µM (active)
- CC50 [18]: 100 µM (active)
- IC50 (Fatty acid synthase [19]): 8.42 µM (active)

Compound: CN(C)c1ccc(NC(=O)c2cnsn2)cc1
- AC50 [20]: 4.26 µM (active)
- AC50 [21]: > 52 µM (inactive)
- AC50 [22]: 6.9 µM (active)
- IC50 (cells [23]): > 67.5 µM (inactive)
- AC50 [24]: > 52 µM (inactive)
- IC50 [25]: > 2.5 µM (active)

Compound: O=C(Nc1nnc(-c2ccncc2)s1)C1CCCO1 (centres undefined)
- IC50 [26]: 1.09 µM (active)

Compound: CCCCCCn1cnc2c(c1=O)c1nc3ccccc3nc1n2/N=C/c1ccco1
- IC50 (H9c2): 19.1 µM (active)
- IC50 [27]: > 20 µM (inactive)

Compound: C[C@@H]1CN([C@@H](C)CO)C(=O)c2cc(NC(=O)Nc3ccc(F)cc3)ccc2O[C@@H]1CN(C)Cc1ccc(Oc2ccccc2)cc1
- AC50 [28]: 18.7 µM (active)
- IC50 [12]: > 69.5 µM (inactive)
- AC50 [29]: 2.95 µM (active)
- AC50 [30]: 9.38 µM (active)
- IC50 [13]: > 2.58 µM (active)

Compound: N=c1c(C(=O)NCc2ccccc2)cc2c(=O)n3ccccc3nc2n1Cc1ccco1
- IC50 [31]: 36.6 µM (active)
- IC50 [32]: 2.34 µM (active)
- IC50 [27]: > 20 µM (inactive)
- IC50 (Protein skinhead-1): > 100 µM (inactive)

Compound: O=C1CN(c2cc(Cl)cc(Cl)c2)C(=O)CN1/N=C/c1cccnc1
- EC50 [5]: 0.01 µM (not active)

Compound: CN1CCN(C(=O)C2Cc3c(-c4ccc5c(c4)OCO5)ccnc3O2)CC1 (centres undefined)
- IC50 [26]: 1.73 µM (active)
